Consider one compound from CN114848615A, “和厚朴酚小分子自主装纳米粒及制备方法” (Tianjin University, priority 2022, dated 2022).

This data set is described as follows: SEM/TEM characterisation and appearance/distribution in water. Type of data set: physicochemical. The conditions noted are these: in words.

SMILES strings stand for the structures.

Take `C=CCc1ccc(O)c(-c2ccc(O)c(CC=C)c2)c1` [HK, 和厚朴酚]: the distribution/appearance in water result is reported as “形成浑浊的白色浆液”.
